According to PubChem BioAssay (NCI):
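Each compound was tested at five concentrations against cells in 96-well plates for 48 hours. At the GI50, growth is halved. TGI: concentration producing complete growth inhibition.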

What was measured:
Assay in all cases: growth of human tumour cells (NCI), 48 h
HOP-92 NSCLC = test system: HOP-92 NSCLC
RXF 393 renal = test system: RXF 393 renal
A549 NSCLC = test system: A549 NSCLC
EKVX NSCLC = test system: EKVX NSCLC
K-562 leukemia = test system: K-562 leukemia
MDA-MB-231 breast = test system: MDA-MB-231 breast
NCI-H23 lung = test system: NCI-H23 lung
NCI-H460 lung = test system: NCI-H460 lung
SK-MEL-2 melanoma = test system: SK-MEL-2 melanoma

**Q.** c1csc(-c2c3ccc(=[N+]4CCCCC4)cc-3oc3cc(N4CCCCC4)ccc23)c1 was tested. Which GI50 (HOP-92 NSCLC) did it give?
**A.** The GI50 was 0.127 µM.

**Q.** And the TGI (HOP-92 NSCLC)?
**A.** The TGI was 0.309 µM.

**Q.** And the GI50 (RXF 393 renal)?
**A.** The GI50 was 0.133 µM.

**Q.** What about the TGI (RXF 393 renal) of the same compound?
**A.** The TGI was 0.273 µM.

**Q.** Which TGI (A549 NSCLC) does the source give for CC12CC1C(c1cccc([N+](=O)[O-])c1)(c1cccc([N+](=O)[O-])c1)N=N2 (stereo not drawn) here?
**A.** Its TGI is > 100 µM.

**Q.** What about the TGI (EKVX NSCLC) of the same compound?
**A.** The TGI was > 100 µM.

**Q.** What about the TGI (HOP-92 NSCLC) of the same compound?
**A.** The TGI was 34.7 µM.

**Q.** And the TGI (K-562 leukemia)?
**A.** Its TGI is > 100 µM.

**Q.** What about the TGI (MDA-MB-231 breast) of the same compound?
**A.** The TGI was 39.1 µM.

**Q.** And the TGI (NCI-H23 lung)?
**A.** The TGI was 51.5 µM.

**Q.** What about the TGI (NCI-H460 lung) of the same compound?
**A.** The TGI was > 100 µM.

**Q.** What about the TGI (SK-MEL-2 melanoma) of the same compound?
**A.** The TGI was > 100 µM.

**Q.** Which results are given for COc1ccc(/C=N/N2C(=O)c3c(N)c(C#N)c(-c4ccccc4)c(-c4ccccc4)c3C2=O)cc1?
**A.** TGI (A549 NSCLC): > 100 µM; TGI (EKVX NSCLC): > 100 µM; TGI (HOP-92 NSCLC): > 100 µM; TGI (K-562 leukemia): > 100 µM; TGI (MDA-MB-231 breast): > 100 µM; TGI (NCI-H460 lung): > 100 µM; TGI (RXF 393 renal): > 100 µM; TGI (SK-MEL-2 melanoma): > 100 µM

**Q.** Which results are given for O=C([CH-]C(=O)c1ccccc1)c1ccccc1.O=C([CH-]C(=O)c1ccccc1)c1ccccc1.[O]=[U+2]=[O]?
**A.** GI50 (A549 NSCLC): 3.17 µM; TGI (A549 NSCLC): 18.7 µM; GI50 (EKVX NSCLC): 4.78 µM; TGI (EKVX NSCLC): > 100 µM; GI50 (HOP-92 NSCLC): 2.9 µM; TGI (HOP-92 NSCLC): 6.18 µM; GI50 (NCI-H23 lung): 4.01 µM; TGI (NCI-H23 lung): > 100 µM; GI50 (NCI-H460 lung): 1.99 µM; TGI (NCI-H460 lung): 13.1 µM; GI50 (RXF 393 renal): 2.35 µM; TGI (RXF 393 renal): 6.22 µM

**Q.** What does the source list for O=c1n(Cc2ccccc2)c(=O)n2c(=O)n(Cc3ccccc3)c(=O)n12?
**A.** TGI (HOP-92 NSCLC): > 100 µM; TGI (K-562 leukemia): > 100 µM; TGI (MDA-MB-231 breast): > 100 µM; TGI (NCI-H23 lung): > 100 µM; TGI (NCI-H460 lung): > 100 µM

**Q.** What does the source list for Clc1ccc(Cl)c(SCCCN2CCNCC2)c1?
**A.** TGI (A549 NSCLC): 44.4 µM; TGI (EKVX NSCLC): 34.7 µM; TGI (HOP-92 NSCLC): 32.6 µM; TGI (K-562 leukemia): 39.9 µM; TGI (MDA-MB-231 breast): 31.7 µM; TGI (NCI-H23 lung): 39.8 µM; TGI (NCI-H460 lung): 42.1 µM; TGI (RXF 393 renal): 32.4 µM

**Q.** Which results are given for S=C1CC(c2ccccc2)Sc2ccc(Cl)cc2N1 (stereo not drawn)?
**A.** TGI (A549 NSCLC): > 100 µM; TGI (EKVX NSCLC): > 100 µM; TGI (K-562 leukemia): > 100 µM; TGI (MDA-MB-231 breast): > 100 µM; TGI (NCI-H23 lung): > 100 µM; TGI (NCI-H460 lung): > 100 µM; TGI (RXF 393 renal): 25.7 µM

**Q.** With Cc1ccc(-c2c(C#N)c(-c3ccc([N+](=O)[O-])cc3)c(C#N)c(=O)n2NS(=O)(=O)c2ccccc2)cc1 as the compound, how does the TGI (A549 NSCLC) read?
**A.** The TGI was > 100 µM.

**Q.** What about the TGI (EKVX NSCLC) of the same compound?
**A.** The TGI was > 100 µM.

**Q.** And the TGI (HOP-92 NSCLC)?
**A.** The TGI was 85.9 µM.

**Q.** What about the TGI (K-562 leukemia) of the same compound?
**A.** Its TGI is > 100 µM.

**Q.** And the TGI (MDA-MB-231 breast)?
**A.** Its TGI is > 100 µM.

**Q.** And the TGI (NCI-H460 lung)?
**A.** The TGI was > 100 µM.

**Q.** And the TGI (RXF 393 renal)?
**A.** Its TGI is > 100 µM.

**Q.** And the TGI (SK-MEL-2 melanoma)?
**A.** The TGI was > 100 µM.

**Q.** Which TGI (A549 NSCLC) does the source give for COC(=O)C1OC(O[C@H]2CC[C@]3(C)[C@H]4CC=C5[C@@H]6CC(C)(C)CC[C@]6(C(=O)OC6OCC(O)C(O)C6OC6OC(C)C(OC7OCC(OC8OCC(O)C(O)C8O)C(O)C7O)C(O)C6O)[C@H](O)C[C@@]5(C)[C@]4(C)CC[C@H]3C2(C)C)C(O)C(O)C1O (stereo partly drawn) here?
**A.** The TGI was 9.63 µM.

**Q.** And the TGI (EKVX NSCLC)?
**A.** The TGI was 5.86 µM.

**Q.** What about the TGI (HOP-92 NSCLC) of the same compound?
**A.** Its TGI is 4.77 µM.

**Q.** What about the TGI (MDA-MB-231 breast) of the same compound?
**A.** Its TGI is 9.33 µM.

**Q.** And the TGI (NCI-H23 lung)?
**A.** Its TGI is 6.53 µM.

**Q.** What about the TGI (NCI-H460 lung) of the same compound?
**A.** Its TGI is 32.5 µM.

**Q.** And the TGI (RXF 393 renal)?
**A.** Its TGI is 25.8 µM.

**Q.** And the TGI (SK-MEL-2 melanoma)?
**A.** Its TGI is 10.1 µM.
